We go through 1 compound from PMC4146346 (Journal of cellular physiology, 2012).

Test in all cases: whole-cell patch clamp in HEK-293
Common to all, as to assay type: cell-based
In general terms: The patch-clamp technique gives a direct electrical read-out from membranes.

In assay [1] the target is CaV3.1 (α1G) (Homo sapiens, UniProt O43497).
The target in assay [2] is CaV3.3 (α1I) (Homo sapiens, UniProt Q9P0X4).
In assay [3] the target is CaV3.2 (α1H) (Homo sapiens, UniProt O95180).

Sequence of CaV3.3 (α1I) (Q9P0X4 whole entry): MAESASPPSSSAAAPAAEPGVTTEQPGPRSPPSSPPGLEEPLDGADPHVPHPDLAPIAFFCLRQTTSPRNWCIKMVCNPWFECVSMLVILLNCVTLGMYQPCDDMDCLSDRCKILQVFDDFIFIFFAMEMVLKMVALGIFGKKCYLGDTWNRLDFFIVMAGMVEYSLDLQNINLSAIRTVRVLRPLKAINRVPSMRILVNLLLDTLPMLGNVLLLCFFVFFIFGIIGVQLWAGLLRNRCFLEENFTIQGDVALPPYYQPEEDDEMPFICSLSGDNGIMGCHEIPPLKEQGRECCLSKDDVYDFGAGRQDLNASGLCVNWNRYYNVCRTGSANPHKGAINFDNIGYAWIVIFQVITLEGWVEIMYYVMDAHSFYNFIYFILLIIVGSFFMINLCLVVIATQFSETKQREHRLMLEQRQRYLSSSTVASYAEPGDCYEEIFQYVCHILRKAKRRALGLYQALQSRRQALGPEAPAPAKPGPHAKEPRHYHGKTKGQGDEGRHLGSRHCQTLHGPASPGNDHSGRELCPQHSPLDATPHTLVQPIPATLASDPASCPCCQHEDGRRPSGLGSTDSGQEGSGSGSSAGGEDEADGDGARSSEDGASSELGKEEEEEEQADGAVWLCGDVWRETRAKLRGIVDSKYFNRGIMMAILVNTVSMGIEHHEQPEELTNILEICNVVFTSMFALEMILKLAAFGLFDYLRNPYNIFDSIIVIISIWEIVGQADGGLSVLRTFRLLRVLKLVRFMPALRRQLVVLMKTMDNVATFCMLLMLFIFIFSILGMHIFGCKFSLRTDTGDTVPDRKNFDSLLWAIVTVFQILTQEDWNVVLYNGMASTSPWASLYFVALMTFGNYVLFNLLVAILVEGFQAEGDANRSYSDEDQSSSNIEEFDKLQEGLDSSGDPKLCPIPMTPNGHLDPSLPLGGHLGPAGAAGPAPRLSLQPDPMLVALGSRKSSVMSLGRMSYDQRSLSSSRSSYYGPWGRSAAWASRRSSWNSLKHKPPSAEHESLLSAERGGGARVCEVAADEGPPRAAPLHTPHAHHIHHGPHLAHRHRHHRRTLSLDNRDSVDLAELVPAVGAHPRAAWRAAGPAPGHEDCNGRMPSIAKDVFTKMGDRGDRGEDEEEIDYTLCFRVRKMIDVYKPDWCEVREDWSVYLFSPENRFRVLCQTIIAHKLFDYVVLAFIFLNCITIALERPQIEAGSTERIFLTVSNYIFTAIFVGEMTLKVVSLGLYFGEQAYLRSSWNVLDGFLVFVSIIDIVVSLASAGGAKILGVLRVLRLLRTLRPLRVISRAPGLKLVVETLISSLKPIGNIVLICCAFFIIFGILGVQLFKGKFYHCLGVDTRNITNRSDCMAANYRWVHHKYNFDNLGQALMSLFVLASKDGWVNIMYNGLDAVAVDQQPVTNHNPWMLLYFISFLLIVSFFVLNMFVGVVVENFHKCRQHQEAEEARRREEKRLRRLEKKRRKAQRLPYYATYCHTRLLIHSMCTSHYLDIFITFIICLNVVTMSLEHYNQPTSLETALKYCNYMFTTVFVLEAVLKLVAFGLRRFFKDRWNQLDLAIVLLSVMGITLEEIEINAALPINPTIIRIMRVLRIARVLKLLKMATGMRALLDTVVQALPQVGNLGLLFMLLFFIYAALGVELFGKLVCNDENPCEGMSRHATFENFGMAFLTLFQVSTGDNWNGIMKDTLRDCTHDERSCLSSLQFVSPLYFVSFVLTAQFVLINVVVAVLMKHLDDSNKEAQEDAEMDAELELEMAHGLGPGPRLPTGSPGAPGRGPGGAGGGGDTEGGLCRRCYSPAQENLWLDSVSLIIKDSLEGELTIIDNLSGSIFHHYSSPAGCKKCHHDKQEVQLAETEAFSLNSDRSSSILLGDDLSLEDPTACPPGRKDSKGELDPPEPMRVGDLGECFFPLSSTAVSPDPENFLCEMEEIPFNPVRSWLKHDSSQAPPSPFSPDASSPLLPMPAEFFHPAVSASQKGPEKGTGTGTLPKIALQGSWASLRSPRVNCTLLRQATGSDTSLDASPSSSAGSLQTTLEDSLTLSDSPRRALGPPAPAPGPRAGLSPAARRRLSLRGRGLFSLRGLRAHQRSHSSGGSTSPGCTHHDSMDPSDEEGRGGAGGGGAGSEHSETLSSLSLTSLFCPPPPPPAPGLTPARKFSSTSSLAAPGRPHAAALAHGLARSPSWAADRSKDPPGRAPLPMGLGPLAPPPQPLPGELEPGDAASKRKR
Sequence of CaV3.1 (α1G) (O43497 whole entry): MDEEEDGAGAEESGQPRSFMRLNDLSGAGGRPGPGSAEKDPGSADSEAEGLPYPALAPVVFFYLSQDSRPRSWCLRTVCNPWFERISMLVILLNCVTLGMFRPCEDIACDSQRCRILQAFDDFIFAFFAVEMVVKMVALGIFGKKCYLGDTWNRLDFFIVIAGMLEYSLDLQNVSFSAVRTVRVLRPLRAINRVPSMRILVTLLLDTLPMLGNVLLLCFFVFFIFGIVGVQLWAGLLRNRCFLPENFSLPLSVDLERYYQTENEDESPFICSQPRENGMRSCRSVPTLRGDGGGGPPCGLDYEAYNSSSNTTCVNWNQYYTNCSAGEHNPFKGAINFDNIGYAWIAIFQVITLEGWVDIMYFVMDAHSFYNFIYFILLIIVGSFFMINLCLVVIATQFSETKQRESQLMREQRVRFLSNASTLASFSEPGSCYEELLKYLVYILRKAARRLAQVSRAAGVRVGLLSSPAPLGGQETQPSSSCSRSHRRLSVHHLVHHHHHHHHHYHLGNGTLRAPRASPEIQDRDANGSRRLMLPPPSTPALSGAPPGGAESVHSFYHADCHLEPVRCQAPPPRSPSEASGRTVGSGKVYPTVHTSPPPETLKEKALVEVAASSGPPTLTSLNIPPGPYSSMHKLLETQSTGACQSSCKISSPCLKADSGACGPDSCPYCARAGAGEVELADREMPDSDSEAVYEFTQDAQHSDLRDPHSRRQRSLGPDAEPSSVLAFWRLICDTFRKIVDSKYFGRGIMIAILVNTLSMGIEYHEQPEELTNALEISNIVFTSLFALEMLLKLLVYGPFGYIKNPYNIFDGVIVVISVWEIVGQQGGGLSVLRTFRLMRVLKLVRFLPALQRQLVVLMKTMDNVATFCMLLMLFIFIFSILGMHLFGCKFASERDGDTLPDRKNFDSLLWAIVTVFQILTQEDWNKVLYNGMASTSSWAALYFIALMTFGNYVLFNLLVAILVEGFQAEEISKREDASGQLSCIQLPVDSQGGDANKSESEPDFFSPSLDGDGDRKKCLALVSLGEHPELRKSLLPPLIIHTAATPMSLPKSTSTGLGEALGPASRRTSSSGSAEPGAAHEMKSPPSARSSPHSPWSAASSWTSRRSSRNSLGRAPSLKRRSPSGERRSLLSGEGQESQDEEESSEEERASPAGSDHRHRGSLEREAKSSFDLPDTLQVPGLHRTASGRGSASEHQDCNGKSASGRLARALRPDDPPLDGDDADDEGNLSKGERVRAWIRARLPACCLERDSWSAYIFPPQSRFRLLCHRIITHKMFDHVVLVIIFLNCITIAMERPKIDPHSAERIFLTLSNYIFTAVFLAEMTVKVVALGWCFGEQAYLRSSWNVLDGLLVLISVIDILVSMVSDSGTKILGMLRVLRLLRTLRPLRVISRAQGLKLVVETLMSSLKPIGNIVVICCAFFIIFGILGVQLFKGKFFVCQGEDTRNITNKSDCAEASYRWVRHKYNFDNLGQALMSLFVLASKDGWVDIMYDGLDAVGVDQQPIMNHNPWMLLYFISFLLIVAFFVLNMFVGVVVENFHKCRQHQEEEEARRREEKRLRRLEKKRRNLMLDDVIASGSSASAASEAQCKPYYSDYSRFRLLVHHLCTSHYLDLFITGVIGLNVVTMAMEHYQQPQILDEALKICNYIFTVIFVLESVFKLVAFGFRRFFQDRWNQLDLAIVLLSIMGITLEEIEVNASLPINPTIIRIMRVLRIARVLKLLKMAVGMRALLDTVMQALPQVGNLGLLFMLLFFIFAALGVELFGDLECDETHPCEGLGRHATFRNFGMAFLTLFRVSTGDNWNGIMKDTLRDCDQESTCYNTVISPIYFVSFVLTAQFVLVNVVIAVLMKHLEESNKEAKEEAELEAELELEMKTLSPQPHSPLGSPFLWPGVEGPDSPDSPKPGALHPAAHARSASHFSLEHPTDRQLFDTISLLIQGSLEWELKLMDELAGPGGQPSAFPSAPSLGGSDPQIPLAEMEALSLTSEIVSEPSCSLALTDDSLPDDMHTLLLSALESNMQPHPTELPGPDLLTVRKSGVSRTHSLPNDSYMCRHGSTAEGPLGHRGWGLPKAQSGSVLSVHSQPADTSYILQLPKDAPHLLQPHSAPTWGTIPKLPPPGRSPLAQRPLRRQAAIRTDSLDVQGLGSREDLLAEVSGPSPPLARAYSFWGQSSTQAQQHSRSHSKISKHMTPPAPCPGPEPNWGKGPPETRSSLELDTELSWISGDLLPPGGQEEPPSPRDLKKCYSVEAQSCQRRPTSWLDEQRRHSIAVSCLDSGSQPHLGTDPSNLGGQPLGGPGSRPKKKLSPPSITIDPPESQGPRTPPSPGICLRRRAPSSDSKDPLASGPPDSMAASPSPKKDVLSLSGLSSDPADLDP

For orientation: Kd means the equilibrium constant for the complex coming apart. Read a low Kd as a tighter complex. Take `O=C(O)c1cccnc1Nc1cccc(C(F)(F)F)c1` [NA, 2-{[3-(trifluoromethyl)phenyl]amino}-pyridine-3-carboxylic acid]: the Kd in assay [1] was 78.4 µM; in assay [2], 137 µM; in assay [3], 192 µM.
